For the first test, the target named is b-Raf (V600E) (Homo sapiens (Human), UniProt P15056, V600E). The following applies: read-out: b-Raf IC-50; AlphaScreen, 60 min pre-incubation, 3 hours reaction. (In Alpha technology, singlet oxygen from a donor bead excites a nearby acceptor bead.)
b-Raf (V600E), sequence (P15056 whole entry V600E): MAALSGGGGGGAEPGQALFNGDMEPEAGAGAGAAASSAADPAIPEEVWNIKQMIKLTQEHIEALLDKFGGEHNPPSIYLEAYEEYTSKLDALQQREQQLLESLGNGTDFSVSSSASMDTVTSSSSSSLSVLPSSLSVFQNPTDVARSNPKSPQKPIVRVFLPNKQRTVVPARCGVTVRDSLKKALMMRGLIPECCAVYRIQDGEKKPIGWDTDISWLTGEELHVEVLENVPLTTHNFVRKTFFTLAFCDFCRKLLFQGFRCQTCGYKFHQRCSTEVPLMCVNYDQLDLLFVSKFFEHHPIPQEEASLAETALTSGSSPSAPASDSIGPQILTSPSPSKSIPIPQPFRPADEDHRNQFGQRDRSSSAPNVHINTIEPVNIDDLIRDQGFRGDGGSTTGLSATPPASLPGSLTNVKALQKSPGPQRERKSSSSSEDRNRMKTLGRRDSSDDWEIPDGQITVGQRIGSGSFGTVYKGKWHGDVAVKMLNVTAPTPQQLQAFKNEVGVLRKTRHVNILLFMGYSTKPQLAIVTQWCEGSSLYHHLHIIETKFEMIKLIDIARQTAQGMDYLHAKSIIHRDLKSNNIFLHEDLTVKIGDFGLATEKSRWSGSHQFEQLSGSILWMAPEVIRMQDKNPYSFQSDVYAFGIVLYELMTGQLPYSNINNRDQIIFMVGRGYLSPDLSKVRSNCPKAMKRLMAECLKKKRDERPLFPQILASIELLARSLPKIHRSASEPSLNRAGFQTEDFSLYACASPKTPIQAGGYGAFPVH
Turning to `Cc1ccc(C(=O)Nc2cccc(C(F)(F)F)c2)cc1-c1cc(N2CCOCC2)nc(N2CC(O)C2)n1` [Example 766, 3-(2-(3-hydroxyazetidin-1-yl)-6-morpholinopyrimidin-4-yl)-4-methyl-N-(3-(trifluoromethyl)phenyl)benzamide], the IC50 worked out at 1.8 nM. Still for that read-out and setting: to `Cc1ccc(NC(=O)c2cccc(C(C)(C)C#N)c2)cc1-c1cc(N2CCOCC2)c2nccn2n1` [Example 846, 3-(2-cyanopropan-2-yl)-N-(4-methyl-3-(8-morpholinoimidazo[1,2-b]pyridazin-6-yl)phenyl)benzamide] belongs 0.6 nM; to `Cc1ccc(NC(=O)c2ccnc(C(C)(C)C#N)c2)cc1-c1cc(N2CCOCC2)nc(N[C@H](C)CO)n1` [Example 749, (R)-2-(2-cyanopropan-2-yl)-N-(3-(2-((1-hydroxypropan-2-yl)amino)-6-morpholinopyrimidin-4-yl)-4-methylphenyl)isonicotinamide], 1.9 nM; to `COCCOc1nnc(-c2cc(NC(=O)c3ccnc(C(C)(C)C#N)c3)ccc2C)cc1N1CCOCC1` [Example 601, 2-(2-cyanopropan-2-yl)-N-(3-(6-(2-methoxyethoxy)-5-morpholinopyridazin-3-yl)-4-methylphenyl)isonicotinamide], 1.1 nM.

Turning to `Cc1ncc(NC(=O)c2cccc(C(F)(F)F)c2)cc1-c1ccc(C#N)c(N2CCOCC2)c1` [Example 684], the IC50 stood at 2.9 nM. `CCN1CCN(c2cc(C(=O)Nc3ccc(C)c(-c4cc(N5CCOCC5)n(C)c(=O)c4)c3)cc(C(F)(F)F)c2)CC1` [Example 490, 3-(4-ethylpiperazin-1-yl)-N-(4-methyl-3-(1-methyl-6-morpholino-2-oxo-1,2-dihydropyridin-4-yl)phenyl)-5-(trifluoromethyl)benzamide]: the IC50 amounted to 2.5 nM. `Cc1ncc(NC(=O)c2cnnc(C(F)(F)F)c2)cc1-c1cc(N2CCOCC2)n2nccc2n1` [Example 801, N-(6-methyl-5-(7-morpholinopyrazolo[1,5-a]pyrimidin-5-yl)pyridin-3-yl)-6-(trifluoromethyl)pyridazine-4-carboxamide]: the IC50 came to 3 nM. Same read-out and setting: to `Cc1ccc(NC(=O)c2ccnc(C3COC3)c2)cc1-c1cc(N2CCOCC2)c(=O)n(C)n1` [Example 648, N-(4-methyl-3-(1-methyl-5-morpholino-6-oxo-1,6-dihydropyridazin-3-yl)phenyl)-2-(oxetan-3-yl)isonicotinamide] belongs 4.5 nM; to `Cc1ccc(NC(=O)c2ccnc(C(C)(C)F)c2)cc1-c1cc(N2CCOCC2)c(OCCO)nn1` [Example 588, 2-(2-fluoropropan-2-yl)-N-(3-(6-(2-hydroxyethoxy)-5-morpholinopyridazin-3-yl)-4-methylphenyl)isonicotinamide], 2.2 nM. The same measure, in the same setting: to `Cc1ccc(NC(=O)c2ccnc(C(C)(C)C#N)c2)cc1-c1cc(N2CCOCC2)n2nccc2n1` [Example 792, 2(2-cyanopropan-2-yl)-N-(4-methyl-3(7-morpholinopyrazolo[1,5-a]pyrimidin-5-yl)phenyl)isonicotinamide] belongs 1.7 nM. With `COc1cncc(NC(=O)c2ccc(C)c(-c3cc(N4CCOCC4)c(=O)n(C)c3)c2)c1` [Example 442, N-(5-methoxypyridin-3-yl)-4-methyl-3-(1-methyl-5-morpholino-6-oxo-1,6-dihydropyridin-3-yl)benzamide], the IC50 is 68.7 nM. `Cc1ccc(NC(=O)c2ccnc(C(C)(C)C#N)c2)cc1-c1cc(N2CCOCC2)c2nccn2n1` [Example 844, 2-(2-cyanopropan-2-yl)-N-(4-methyl-3-(8-morpholinoimidazo[1,2-b]pyridazin-6-yl)phenyl)isonicotinamide]: the IC50 stood at 1.7 nM.

Still in this test, the particulars now being: read-out: b-Raf IC-50; AlphaScreen, 60 min pre-incubation, reaction 3 hours at room temperature.
With `Cc1ccc(NC(=O)c2ccnc(S(C)(=O)=O)c2)cc1-c1cnc(OC(C)C)c(N2CCOCC2)c1` [Example 950, N-(3-(6-isopropoxy-5-morpholinopyridin-3-yl)-4-methylphenyl)-2-(methylsulfonyl)isonicotinamide], the IC50 is 0.47 nM. Regarding `Cc1ncc(NC(=O)c2cncc(C(F)(F)F)c2)cc1-c1cc(N2CCOCC2)c(OCC(F)F)nn1` [Example 917, N-(5-(6-(2,2-difluoroethoxy)-5-morpholinopyridazin-3-yl)-6-methylpyridin-3-yl)-5-(trifluoromethyl)nicotinamide], the IC50 was found to be 0.8 nM. `Cc1ccc(NC(=O)c2cnnc(C3(C#N)CC3)c2)cc1-c1cc(N2CCOCC2)n(C)c(=O)c1` [Example 899, 6-(1-cyanocyclopropyl)-N-(4-methyl-3-(1-methyl-6-morpholino-2-oxo-1,2-dihydropyridin-4-yl)phenyl)pyridazine-4-carboxamide]: the IC50 is 1.87 nM. Still for that read-out and setting: in the case of `Cc1ncc(NC(=O)c2ccnc(C(F)F)c2)cc1-c1cc(N2CCOCC2)nc(N2CCOCC2)c1` [Example 1122, 2-(difluoromethyl)-N-(2-methyl-2′,6′-dimorpholino-[3,4′-bipyridin]-5-yl)isonicotinamide] it was 3.31 nM.

For `CCC(F)(F)c1cc(C(=O)Nc2cnc(C)c(-c3cc(N4CCOCC4)c(OCC(F)F)nn3)c2)ccn1` [Example 914, N-(5-(6-(2,2-difluoroethoxy)-5-morpholinopyridazin-3-yl)-6-methylpyridin-3-yl)-2-(1,1-difluoropropyl)isonicotinamide], the IC50 came out at 1.95 nM. On to `Cc1ccc(NC(=O)c2ccnc(C(F)F)c2)cc1-c1cc(OC2CCOCC2)nc(N2CCOCC2)c1` [Example 1151, 2-(difluoromethyl)-N-(4-methyl-3-(2-morpholino-6-((tetrahydro-2H-pyran-4-yl)oxy)pyridin-4-yl)phenyl)isonicotinamide], for which the IC50 came out at 0.6 nM. Take `Cc1ccc(NC(=O)c2cnnc(C3(C#N)CC3)c2)cc1-c1cc(N2CCOCC2)c(=O)n(C)c1` [Example 902, 6-(1-cyanocyclopropyl)-N-(4-methyl-3-(1-methyl-5-morpholino-6-oxo-1,6-dihydropyridin-3-yl)phenyl)pyridazine-4-carboxamide]: the IC50 was found to be 3.37 nM. As to `Cc1ncc(NC(=O)c2ccnc(C(C)(C)C#N)c2)cc1-c1cc(N2CCOCC2)c(S(C)(=O)=O)nn1` [Example 924, 2-(2-cyanopropan-2-yl)-N-(6-methyl-5-(6-(methylsulfonyl)-5-morpholinopyridazin-3-yl)pyridin-3-yl)isonicotinamide], the IC50 was determined as 57.7 nM. For `Cc1ccc(NC(=O)c2ccnc(C(C)(C)C#N)c2)cc1-c1nc2c(c(N3CCOCC3)n1)CNC2` [Example 866, 2-(2-cyanopropan-2-yl)-N-(4-methyl-3-(4-morpholino-6,7-dihydro-5H-pyrrolo[3,4-d]pyrimidin-2-yl)phenyl)isonicotinamide], the IC50 amounted to 7.6 nM. Consider `Cc1ccc(NC(=O)c2ccnc(C(C)(C)O)c2)cc1-c1cnc(OC(C)C)c(N2CCOCC2)c1` [Example 947, 2-(2-hydroxypropan-2-yl)-N-(3-(6-isopropoxy-5-morpholinopyridin-3-yl)-4-methylphenyl)isonicotinamide], for which the IC50 was 1.76 nM. Same read-out and setting: to `Cc1ncc(NC(=O)c2ccnc(C(C)(C)F)c2)cc1-c1cnc(OC(C)C)c(N2CCOCC2)c1` [Example 953, 2-(2-fluoropropan-2-yl)-N-(6′-isopropoxy-2-methyl-5′-morpholino-[3,3′-bipyridin]-5-yl)isonicotinamide] belongs 3.33 nM.

Consider `Cc1ccc(NC(=O)c2ccnc(C(C)(C)C#N)c2)cc1-c1cc(N2CCOCC2)nc(N2CC(C)(O)C2)c1` [Example 1110, 2-(2-cyanopropan-2-yl)-N-(3-(2-(3-hydroxy-3-methylazetidin-1-yl)-6-morpholinopyridin-4-yl)-4-methylphenyl)isonicotinamide], for which the IC50 stood at 4.82 nM.

The test is the same for the next values; noted with them: read-out: b-Raf IC-50; Table 2; AlphaScreen, 3 hours reaction.
Turning to `Cc1ncc(NC(=O)c2cccc(C(F)(F)F)c2)cc1-c1cnc(O[C@H]2CCOC2)c(N2CCOCC2)c1` [Example 310, (S)—N-(2-methyl-5′-morpholino-6′-((tetrahydrofuran-3-yl)oxy)-[3,3′-bipyridin]-5-yl)-3-(trifluoromethyl)benzamide], the IC50 was determined as 1.8 nM.

Regarding `CCOc1ncc(-c2cc(NC(=O)c3cccc(S(C)(=O)=O)c3)ccc2C)cc1N1CCOCC1` [Example 229, N-(3-(6-ethoxy-5-morpholinopyridin-3-yl)-4-methylphenyl)-3-(methylsulfonyl)benzamide], the IC50 worked out at 0.7 nM. Turning to `CCOc1ncc(-c2cc(NC(=O)c3cccc(C(F)(F)F)c3)cnc2C)cc1N1CCOCC1` [Example 248, N-(6′-ethoxy-2-methyl-5′-morpholino-[3,3′-bipyridin]-5-yl)-3-(trifluoromethyl)benzamide], the IC50 was 1.2 nM. On the same count and under the same terms, in the case of `Cc1ccc(C(=O)Nc2cccc(C(F)(F)F)c2)cc1-c1cc(N2CCOCC2)c(=O)n(C)c1` [Example 137, 4-methyl-3-(1-methyl-5-morpholino-6-oxo-1,6-dihydropyridin-3-yl)-N-(3-(trifluoromethyl)phenyl)benzamide] it was 7.1 nM. Still for that read-out and setting: to `COCCOc1ncc(-c2cc(NC(=O)c3cccc(C(F)(F)F)c3)cnc2C)cc1N1CCOCC1` [Example 312, N-(6′-(2-methoxyethoxy)-2-methyl-5′-morpholino-[3,3′-bipyridin]-5-yl)-3-(trifluoromethyl)benzamide] belongs 4 nM; to `Cc1ncc(NC(=O)c2ccnc(C(C)C)c2)cc1-c1cnc(N(C)C)c(N2CCOCC2)c1` [Example 308, N-(6′-(dimethylamino)-2-methyl-5′-morpholino-[3,3′-bipyridin]-5-yl)-2-isopropylisonicotinamide], 0.8 nM. In the case of `Cn1cc(-c2cc(NC(=O)c3cccc(C(F)F)c3)ccc2F)cc(N2CCOCC2)c1=O` [Example 417, 3-(difluoromethyl)-N-(4-fluoro-3-(1-methyl-5-morpholino-6-oxo-1,6-dihydropyridin-3-yl)phenyl)benzamide], the IC50 was found to be 3.1 nM. Regarding `Cc1ccc(NC(=O)c2cnnc(C(F)(F)F)c2)cc1-c1cnc(OC2CCOCC2)c(N2CCOCC2)c1` [Example 275, N-(4-methyl-3-(5-morpholino-6-((tetrahydro-2H-pyran-4-yl)oxy)pyridin-3-yl)phenyl)-6-(trifluoromethyl)pyridazine-4-carboxamide], the IC50 was found to be 0.5 nM.

(Values after US9694016B2 (Novartis AG, priority 2013, dated 2017).)
